# Results taken from patent publication US11980667B2, “Short TAT oligomers for drug delivery” (The Trustees of Columbia University in the City of New York, priority 2017, dated 2024).
# Test: Delivery of cell-penetrating peptides to the brain of healthy rats, confocal microscopy
# Type: in vivo, rat
# Excerpt: Animal preparation, IA-TCH injection, and brain tumor implantation. Animal protocols were approved by the Columbia University Institutional Animal Care and Use Committee (IACUC). Studies were primarily conducted on Sprague-Dawley rats weighing 250 to 300 grams. In the case of electron multiplying charge-coupled device imaging studies, Fisher 344 rats implanted with 9L brain tumors were utilized. The surgical preparation including anesthesia, carotid and femoral cannulation, cerebral blood flow and vital sign monitoring, as well as in vivo fluorescence imaging have been previously described in detail.
# IA injections of cell-penetrating peptides (CPPs) were made during TCH as 65 μL pulses totaling 1 ml in volume. TCH was produced by a bolus injection of adenosine, esmolol, and cold saline. Animals were allowed to hemodynamically recover from TCH and euthanized 10 minutes after injection. Uptake of CPPs was assessed with a fluorescence camera and with confocal fluorescence microscopy.
# Cell-penetrating peptides. Two experimental cell-penetrating peptides were tested: 1. octaarginine, also called (Arg)8 or R-8 (SEQ ID NO: 13) and 2. trans-activator of transcription or TAT (Lifetien Inc.). The 14 amino acid peptide sequence for TAT is […]COOH (SEQ ID NO: 11). Both cell-penetrating peptides (CPPs) were labeled with fluorescein so that their distribution could be identified by multispectral imaging and with fluorescence microscopy of the frozen brain sections.
# Fluorescence and electron multiplying charge-coupled device imaging.
compound,measurement,setting,value
"N=C(N)NCCC[C@H](NC(=O)CNC(=O)c1ccc2c(c1)C(=O)OC21c2ccc(O)cc2Oc2cc(O)ccc21)C(=O)N[C@@H](CCCCN)C(=O)N[C@@H](CCCCN)C(=O)N[C@@H](CCCNC(=N)N)C(=O)N[C@@H](CCCNC(=N)N)C(=O)N[C@@H](CCC(N)=O)C(=O)N[C@@H](CCCNC(=N)N)C(=O)N[C@@H](CCCNC(=N)N)C(=O)N[C@@H](CCCNC(=N)N)C(=O)N1CCC[C@H]1C(=O)N1CCC[C@H]1C(=O)N[C@@H](CCC(N)=O)C(=O)N[C@@H](CCC(N)=O)C(=O)O [fluorescein-labeled TAT monomer, 5-FAM-GRKKRRQRRR PPQQ-COOH]",Deposition by hemisphere,"IA-TCH carotid injection, confocal microscopy",detectable deposition preferentially to the hemisphere ipsilateral to carotid injection
same,Parenchymal deposition versus dose,"IA-TCH, dose range 0.25-1 mg",dose dependent increase
same,Distribution in the brain (semi-quantitative),"IA-TCH, confocal microscopy",more diffuse deposition within the white matter
same,Distribution in the brain,"IV delivery of 0.5 mg, FIG. 17 F",diffuse uptake of TAT in and beyond the blood vessels was seen preferentially in the white matter
